Reference: article PMC8583042, “New Hybrid Compounds Combining Fragments of Usnic Acid and Thioether Are Inhibitors of Human Enzymes TDP1, TDP2 and PARP1” (International Journal of Molecular Sciences, 2021)

Key:
HeLa cells [1] = assay: Cytotoxicity of the combination of 10a and topotecan on HeLa cells; format: cell-based, human; conditions: Homo sapiens; HeLa, Tpc titrated with fixed 5 μM 10a; read-out: CC50 of Tpc with 10a
Text: TDP1 is able to cleave the TOP1–DNA complex, thus preventing the action of Tpc and decreasing the efficiency of this clinically used drug. The inhibition of TDP1 activity can increase the efficiency of Tpc. Next, we checked the cytotoxic effect of the combination of Tpc and examined the TDP1 inhibitors compared to Tpc alone on HeLa cells and HEK293 cells.
We observed the suppressed cell growth in the joint presence of the TDP1 inhibitor and Tpc on HeLa cells compared to Tpc alone (Figure 5). We observed the synergistic effect both when we titrated 10a with addition of fixed Tpc (1 μM or 2 μM) and vice versa when we titrated Tpc with addition of fixed 10a (5 μM). […] The CC50 value of Tpc decreased from 2 μM (only Tpc) to 0.7 μM (Tpc with 5 μM 10a).
Cytotoxicity of the compounds was examined against human cell lines HEK293A (human embryonic kidney)—WT, TDP1 deficient (Tdp1-/-), PARP1 deficient (PARP1-/-), and HeLa (cervical cancer) using an EZ4U colorimetric test (Biomedica, Vienna, Austria). The HEK293A cell line was obtained from Thermo Fisher Scientific (Waltham, MA, USA), and the HeLa cell line was obtained from the Russian Cell Culture Collection (RCCC) Institute of Cytology RAS, St. Petersburg, Russia. The cells were grown in DMEM/F12 medium (Gibco, Thermo Fisher Scientific, Waltham, MA, USA), with 1x GlutaMAX (Gibco, Thermo Fisher Scientific, Waltham, MA, USA), 50 IU/mL penicillin, 50 μg/mL streptomycin (MP Biomedicals), and in the presence of 10% fetal bovine serum (Biolot, Saint-Petersburg, Russia) in a 5% CO2 atmosphere. Cells were grown in the presence of 1% DMSO in the control wells. After the formation of a 30–50% monolayer, the tested compounds were added to the medium, and the cell culture was monitored for 3 days. The values were normalized to their own control in each case. At least three independent experiments were carried out. […] The compound concentration that caused 50% cell growth inhibition was determined using OriginPro 8.6.0 software (OriginLab, Northampton, MA, USA). […]

[2] = EZ4U colorimetric cytotoxicity test, HEK293A; format: cell-based; conditions: human
Text: (§1) The low intrinsic cytotoxicity of the additional drug component in the clinically used anticancer cocktails with traditional drugs is very important for treatment. This approach in chemotherapy can reduce the potential resulting toxic load on the body in the case of a combined action of these inhibitors on the activity of several targets. […] The effects of the tested compounds on cell survival are shown on Figure 4 and the CC50 values for three cell lines are shown in Table 1. The intrinsic cytotoxicity of a number of the studied compounds is quite high, namely, they have close IC50 values against the TDP1 and CC50 values on one or several studied cell lines. Most of the compounds generally were more toxic for the HEK293FT and HeLa cell lines than for the HEK293A cell line (Table 1 and Figure 4). The cytotoxicity of the three leader compounds, 7g, 10a, and 7h, was quite high. […] Compound 10b was one of the least toxic among the ten tested compounds.
(§2) Cytotoxicity of the compounds was examined against human cell lines HEK293A (human embryonic kidney)—WT, TDP1 deficient (Tdp1-/-), PARP1 deficient (PARP1-/-), and HeLa (cervical cancer) using an EZ4U colorimetric test (Biomedica, Vienna, Austria). The HEK293A cell line was obtained from Thermo Fisher Scientific (Waltham, MA, USA), and the HeLa cell line was obtained from the Russian Cell Culture Collection (RCCC) Institute of Cytology RAS, St. Petersburg, Russia. The cells were grown in DMEM/F12 medium (Gibco, Thermo Fisher Scientific, Waltham, MA, USA), with 1x GlutaMAX (Gibco, Thermo Fisher Scientific, Waltham, MA, USA), 50 IU/mL penicillin, 50 μg/mL streptomycin (MP Biomedicals), and in the presence of 10% fetal bovine serum (Biolot, Saint-Petersburg, Russia) in a 5% CO2 atmosphere. Cells were grown in the presence of 1% DMSO in the control wells. After the formation of a 30–50% monolayer, the tested compounds were added to the medium, and the cell culture was monitored for 3 days. The values were normalized to their own control in each case. At least three independent experiments were carried out. The 50% cytotoxic concentration (CC50) was defined as the compound concentration that reduced the cell viability by 50% when compared to the untreated controls. The compound concentration that caused 50% cell growth inhibition was determined using OriginPro 8.6.0 software (OriginLab, Northampton, MA, USA). The measurements were carried out in three independent experiments.

[3] = Colorimetric cytotoxicity test, HEK293A PARP1-/-; format: cell-based; conditions: human, PARP1-/- HEK293A cells; PARP1-/- HEK293A cell line; read-out: CC50 of Tpc
Text: In our previous works, we checked the cytotoxic effect of Tpc and the TDP1 inhibitors—monoterpene 3-carene-derived compounds [48, 49] and UA combined with monoterpenoids, measured separately and jointly with Tpc—using a panel of HEK293FT and HEK293A Tdp1 knockout isogenic clones. […] The data on the HEK293FT mutants were of low reproducibility, which is why we decided to change the basic cell line to HEK293A [49]. In this work, we created new PARP1-/- HEK293A cells using the CRISPR–Cas9 approach (Figure S27). […] We checked the intrinsic cytotoxicity of the leader compound (10a) on the HEK293 wild type and TDP1-/- and PARP1-/- cell lines using a colorimetric test (Figure 6). […] There was no difference between the WT and mutant cells.
Cytotoxicity of the compounds was examined against human cell lines HEK293A (human embryonic kidney)—WT, TDP1 deficient (Tdp1-/-), PARP1 deficient (PARP1-/-), and HeLa (cervical cancer) using an EZ4U colorimetric test (Biomedica, Vienna, Austria). […] After the formation of a 30–50% monolayer, the tested compounds were added to the medium, and the cell culture was monitored for 3 days. […] The compound concentration that caused 50% cell growth inhibition was determined using OriginPro 8.6.0 software (OriginLab, Northampton, MA, USA). […]

HeLa cells [4] = assay: EZ4U colorimetric cytotoxicity test, HeLa; format: cell-based, human; conditions: Homo sapiens; HeLa, only Tpc
Text: as §1, §2

TDP1 = biological target: T1, TDP1 (Homo sapiens, UniProt Q9NUW8); assay: Real-time fluorescence assay of TDP1 activity; format: biochemical; conditions: real-time fluorescent assay, 1.5 nM TDP1, 50 nM oligonucleotide; read-out: IC50 (TDP1)
T1 construct: made in house; host or cells: E. coli
Text: We tested UA and all 14 newly synthesized UA derivatives for their TDP1 inhibitory properties by measuring their IC50 values using a real-time fluorescent assay. […] Compounds 10a,b are sulfoxide analogs of 7g,h.
(§3) Human recombinant tyrosyl-DNA phosphodiesterase 1 (TDP1) and human recombinant poly(ADP-ribose)-polymerase1 (PARP1) were expressed in the E. coli system and purified as described.
The biosensor (5′-[FAM] AAC GTC AGGGTC TTC C [BHQ]-3′) was synthesized in the Laboratory of Nucleic Acid Chemistry at the Institute of Chemical Biology and Fundamental Medicine (Novosibirsk, Russia) and was used for TDP1 enzyme activity real-time fluorescence detection. The reaction mixture (200 μL) contained a TDP1 reaction buffer (50 mM Tris-HCl, pH 8.0, 50 mM NaCl, and 7 mM β-mercaptoethanol), 50 nM oligonucleotide, varied concentrations of the tested compounds, and purified TDP1 in a final concentration 1.5 nM. The reaction mixtures were incubated at a constant temperature of 26 °C in a POLARstar OPTIMA fluorimeter (BMG LABTECH, GmbH, Ortenberg, Germany). Fluorescence intensity was measured (Ex485/Em520 nm) every 1 min for 10 min. The average values of the half maximal inhibitory concentration (IC50) were determined using an eleven-point concentration response curve and calculated using MARS Data Analysis 2.0 (BMG LABTECH). The 50% inhibitory concentration (IC50) was defined as the concentration of the compound that inhibited 50% of the enzyme activity when compared to the untreated controls. At least three independent experiments were carried out to obtain the IC50 values. To determine the kinetic parameters of the TDP1 enzymatic reaction, the apparent maximum rate of enzymatic reaction (Vmax), Michaelis constant (KM), possible inhibition mechanism, and steady-state kinetic experiments were carried out at 5 fixed concentrations of the substrate, with variation in the inhibitor concentrations. The standard reaction mixtures (200 μL) contained reaction buffer components; 50 nM, 100 nM, 200 nM, 500 nM, or 1000 nM substrate; an inhibitor; and 1.5 nM recombinant human TDP1. The initial kinetic curves were obtained in three independent experiments and statistically processed in OriginPro 8.6.0 (OriginLab, Northampton, MA, USA).

[5] = Colorimetric cytotoxicity test, HEK293FT; format: cell-based; conditions: human, HEK293FT cells, intrinsic cytotoxicity
Text: as §1, §2

PARP1 = biological target: T2, PARP1 (Homo sapiens, UniProt P09874); assay: PARP1 autopoly(ADP-ribosyl)ation assay with [32P]-NAD+; format: biochemical; conditions: 0.5 mM concentration of the compound; read-out: PARP1 residual activity
T2 construct: made in house; host or cells: E. coli
Protocol: The next step of our study was to test the inhibitors for their ability to inhibit PARP1 and PARP2. UA and the 14 synthesized compounds were tested for the suppression of the ability of PARP1 and PARP2 to include a radioactive label into the acid-insoluble reaction product, poly(ADP-ribose) (PAR). […] The best effect we observed was for 9; the residual activity was 40 ± 5% under the reaction conditions (0.5 mM concentration of the compound), indicated in Materials and Methods.
as §3
The radioactive labeled [32P]-NAD+ was synthesized from α–[32P]-ATP according to [55]. The reaction of autopoly(ADP-ribosyl)ation was carried out as follows: for PARP1, 50 mM Tris-HCl, pH 8.0, 10 mM MgCl2, 150 mM NaCl, and 7 mM β-mercaptoethanol, as well as activated DNA 2 oe/mL, 0.3 mM [^32P]-NAD+ at 37 °C. The reaction was initiated by adding PARP1 to 200 nM and the reaction mixtures were incubated for 2 min. For PARP2: 50 mM Tris-HCl, pH 8.0, 3 mM spermin, 150 mM NaCl, and 7 mM β-mercaptoethanol, as well as activated DNA 2 oe/mL, 0.6 mM [^32P] NAD+ at 37 °C. […] The incorporation of radioactivity into the product was calculated using a Typhoon FLA 9500 scanner (GE Healthcare, Chicago, IL, USA). […]

[6] = EZ4U colorimetric cytotoxicity test, HeLa; format: cell-based, human; conditions: human, HeLa cells; intrinsic cytotoxicity, compound alone, 3 days
Text: as §1, §2

T1 sequence (Q9NUW8 whole entry): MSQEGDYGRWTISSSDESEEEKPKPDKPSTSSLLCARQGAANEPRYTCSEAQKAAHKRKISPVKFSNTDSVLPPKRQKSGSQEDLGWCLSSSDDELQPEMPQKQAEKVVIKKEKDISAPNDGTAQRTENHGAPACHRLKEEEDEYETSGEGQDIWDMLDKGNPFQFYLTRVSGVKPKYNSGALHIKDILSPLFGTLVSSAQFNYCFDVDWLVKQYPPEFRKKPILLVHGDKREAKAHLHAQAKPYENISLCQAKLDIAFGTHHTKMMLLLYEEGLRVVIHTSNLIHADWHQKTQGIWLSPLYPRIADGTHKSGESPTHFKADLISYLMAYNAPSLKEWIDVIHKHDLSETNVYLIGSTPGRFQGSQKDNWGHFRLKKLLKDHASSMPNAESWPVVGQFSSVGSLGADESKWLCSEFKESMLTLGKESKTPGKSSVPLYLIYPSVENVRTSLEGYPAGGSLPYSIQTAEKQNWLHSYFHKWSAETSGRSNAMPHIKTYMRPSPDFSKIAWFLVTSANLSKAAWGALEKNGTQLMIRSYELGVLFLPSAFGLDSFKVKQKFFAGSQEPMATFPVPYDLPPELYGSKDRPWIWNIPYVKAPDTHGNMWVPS
T2 sequence (P09874 whole entry): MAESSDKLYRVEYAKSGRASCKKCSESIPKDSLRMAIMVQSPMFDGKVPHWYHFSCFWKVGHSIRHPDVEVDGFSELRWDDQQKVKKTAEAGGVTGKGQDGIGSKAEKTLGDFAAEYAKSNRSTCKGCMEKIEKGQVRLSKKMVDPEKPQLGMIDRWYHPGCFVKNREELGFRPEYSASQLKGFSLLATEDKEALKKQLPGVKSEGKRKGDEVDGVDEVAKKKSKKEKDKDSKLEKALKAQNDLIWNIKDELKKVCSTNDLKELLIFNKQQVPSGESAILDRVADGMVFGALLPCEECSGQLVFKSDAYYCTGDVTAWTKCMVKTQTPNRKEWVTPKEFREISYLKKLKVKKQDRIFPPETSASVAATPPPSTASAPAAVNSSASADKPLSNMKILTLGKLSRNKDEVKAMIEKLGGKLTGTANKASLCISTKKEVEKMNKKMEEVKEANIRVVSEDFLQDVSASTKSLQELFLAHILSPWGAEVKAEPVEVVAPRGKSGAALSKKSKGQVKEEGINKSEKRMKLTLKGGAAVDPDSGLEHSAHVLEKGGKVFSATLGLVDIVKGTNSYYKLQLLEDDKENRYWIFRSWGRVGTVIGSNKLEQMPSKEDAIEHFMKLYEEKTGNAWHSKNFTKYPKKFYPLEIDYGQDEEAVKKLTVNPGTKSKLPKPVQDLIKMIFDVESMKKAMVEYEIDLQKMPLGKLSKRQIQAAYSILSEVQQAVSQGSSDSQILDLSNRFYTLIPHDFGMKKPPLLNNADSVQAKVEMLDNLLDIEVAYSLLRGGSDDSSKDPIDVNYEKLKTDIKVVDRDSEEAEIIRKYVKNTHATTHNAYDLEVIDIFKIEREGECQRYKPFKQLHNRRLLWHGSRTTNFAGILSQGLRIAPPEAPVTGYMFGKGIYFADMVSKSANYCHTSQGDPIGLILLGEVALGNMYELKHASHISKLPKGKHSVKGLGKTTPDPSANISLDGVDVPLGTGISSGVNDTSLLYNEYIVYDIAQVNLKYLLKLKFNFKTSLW

Row | IC50 (TDP1) [nM] | remaining activity at 500 µM (PARP1) [%] | SMILES | CC50 (HeLa cells [1]) [nM] | CC50 at 3 days ([2]; wild-type HEK293A cells, WT HEK293A cells, read-out: CC50 of Tpc) [nM] | CC50 at 3 days [3] [nM] | CC50 (HeLa cells [4]) [nM] | CC50 at 3 days [5] [nM] | CC50 at 3 days ([2]; HEK293A cells, intrinsic cytotoxicity, 3 days, read-out: HEK293A CC50) [nM] | CC50 at 3 days [6] [nM]
1 |  |  | CC[C@@]1(O)C(=O)OCc2c1cc1n(c2=O)Cc2cc3c(CN(C)C)c(O)ccc3nc2-1 [Tpc, topotecan, reference compound] | 700 | 27 ± 4 | 50 ± 5 | 2000 |  |  | 
2 | 6600 ± 1000 | 40 ± 5 | CC(=O)C1=C(O)C=C2Oc3c(C(=O)CSC(N)=O)c(O)c(C)c(O)c3[C@@]2(C)C1=O [compound 9, (2R)-4-acetyl-10-[2-(carbamoylsulfanyl)acetyl]-5,11,13-trihydroxy-2,12-dimethyl-8-oxatricyclo[7.4.0.0^2,7]trideca-1(13),4,6,9,11-pentaen-3-one] |  |  |  |  | 7000 ± 2000 | > 50000 | 13000 ± 1000
